For test [1], the system named is Bacillus subtilis. Kind of test: Antibacterial activity against Bacillus subtilis 168 after 16 hrs. The class given is functional. The conditions noted are these: subsp. subtilis str. 168, 16 h.
In test [2] the target is T1, Cell division protein FtsZ (Bacillus subtilis (strain 168)) (UniProt P17865).
T1 sequence (whole entry): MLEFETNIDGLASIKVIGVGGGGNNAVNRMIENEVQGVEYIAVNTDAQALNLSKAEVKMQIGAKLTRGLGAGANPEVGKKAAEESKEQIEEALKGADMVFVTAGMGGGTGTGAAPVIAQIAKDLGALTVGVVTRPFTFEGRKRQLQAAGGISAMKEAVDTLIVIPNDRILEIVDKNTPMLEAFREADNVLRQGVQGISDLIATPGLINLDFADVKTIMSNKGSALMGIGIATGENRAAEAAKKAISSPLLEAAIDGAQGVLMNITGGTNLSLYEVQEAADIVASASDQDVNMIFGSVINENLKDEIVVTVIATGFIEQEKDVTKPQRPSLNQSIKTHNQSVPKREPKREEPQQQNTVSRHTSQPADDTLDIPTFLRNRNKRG
Nature of the test: Inhibition of Bacillus subtilis FtsZ GTPase activity up to 64 uM by enzyme-coupled assay.

For test [3], the system named is Bacillus subtilis. Nature of the test: Ratio of totarol MIC to compound MIC for Bacillus subtilis 168. The class given is functional, subsp. subtilis str. 168.
Test [4] has as its target T1, Cell division protein FtsZ (Bacillus subtilis (strain 168)). Kind of test: Inhibition of Bacillus subtilis FtsZ GTPase activity by enzyme-coupled assay in presence of 0.01% triton X-100.
The target of test [5] is T2, Cell division protein FtsZ (Bacillus subtilis (strain 168), UniProt P17865).
T2 sequence (P17865 whole entry): T1 sequence (whole entry)
Nature of the test: Inhibition of Bacillus subtilis FtsZ GTPase activity by enzyme-coupled assay.

Converted amounts (≈) assume the structure as drawn. The source made the active and inactive calls. The calls are words filed in the database; no cut-off is given here.

What is called MIC is the least concentration at which growth counts as inhibited. Low values mean inhibition by little substance, high ones a need for much substance. Take `CC(C)c1c(O)ccc2c1CC[C@H]1C(C)(C)c3[nH]c4ccc(S(N)(=O)=O)cc4c3C[C@]21C` (racemic): 5.5 µM (≈ 2.49 µg/mL) was the least that counted as inhibitory in test [1] (MIC). Same read-out and setting: as for `CC(C)c1c(O)ccc2c1CC[C@H]1C(C)(C)NC(=O)CC[C@]21C`, the figure is more than 160 µM; as for `CC(C)c1c(O)ccc2c1CC[C@H]1C(C)(C)c3[nH]c4ccc(C(F)(F)F)cc4c3C[C@]21C` (racemic), 0.78 µM (≈ 0.344 µg/mL). The same measure, in the same setting: as for `CC(C)c1c(O)ccc2c1CC[C@H]1C(C)(C)c3[nH]c4ccc(F)cc4c3C[C@]21C` (racemic), the figure is 80 µM (≈ 31.3 µg/mL); as for `CN[C@H](CC(C)C)C(=O)N[C@H]1C(=O)N[C@@H](CC(N)=O)C(=O)N[C@H]2C(=O)N[C@H]3C(=O)N[C@H](C(=O)N[C@H](C(=O)O)c4cc(O)cc(O)c4-c4cc3ccc4O)[C@H](O)c3ccc(c(Cl)c3)Oc3cc2cc(c3O[C@@H]2O[C@H](CO)[C@@H](O)[C@H](O)[C@H]2O[C@H]2C[C@](C)(N)[C@H](O)[C@H](C)O2)Oc2ccc(cc2Cl)[C@H]1O` [VANCOMYCIN], 0.63 µM (≈ 0.913 µg/mL); as for `CC(C)c1c(O)ccc2c1CC[C@H]1C(C)(C)C(N)CC[C@]21C` (some centres not stated), more than 160 µM. In test [1], `Cc1ccc2c3c([nH]c2c1C)C(C)(C)[C@@H]1CCc2c(ccc(O)c2C(C)C)[C@@]1(C)C3` (racemic) returned an MIC of 11 µM (≈ 4.42 µg/mL). With `CCc1ccc2[nH]c3c(c2c1)C[C@]1(C)c2ccc(O)c(C(C)C)c2CC[C@H]1C3(C)C` (racemic), the MIC in test [1] worked out at 2.5 µM (≈ 1 µg/mL). Against the preceding molecule, the MIC is about 4.4-fold lower. On to `CC(C)c1c(O)ccc2c1CC[C@H]1C(C)(C)c3[nH]c4ccccc4c3C[C@]21C`, for which, in test [2], the inhibition entry is “inactive”. For the same molecule, the Ratio in test [3] turned out to be 4. The same molecule displayed an MIC in test [1] of 2.5 µM (≈ 0.934 µg/mL).

`COc1ccc2c(c1C(C)C)CC[C@H]1C(C)(C)c3[nH]c4ccc(C#N)cc4c3C[C@]21C` (racemic) had an MIC in test [1] of more than 100 µM. The IC50 is the point on the concentration scale where inhibition reaches its midpoint. Regarding `CC(C)c1c(O)ccc2c1CC[C@H]1C(C)(C)CCC[C@]21C` [TOTAROL], the inhibition entry in test [4] is “inactive”. Also, in test [1], the minimum inhibitory concentration (MIC) is 2.5 µM (≈ 0.716 µg/mL). The molecule further gave an IC50 in test [5] of 24 µM. Molecule `CC(C)c1c(O)ccc2c1NC[C@H]1C(C)(C)CCC[C@]21C` returned an MIC in test [1] of 20 µM (≈ 5.75 µg/mL). Same read-out and setting: the same measure for `COc1ccc2c(c1C(C)C)CC[C@H]1C(C)(C)C(=O)/C(=C\O)C[C@]21C`: more than 160 µM; for `CC(=O)N1C[C@H]2C(C)(C)CCC[C@]2(C)c2ccc(O)c(C(C)C)c21`: more than 256 µM. Still for that read-out and setting: the same measure for `CC(C)c1c(O)ccc2c1CC[C@H]1C(C)(C)c3[nH]c4c(Cl)cc(Cl)cc4c3C[C@]21C` (racemic): 0.78 µM (≈ 0.345 µg/mL); for `CC(C)c1c(O)ccc2c1CC[C@H]1C(C)(C)c3[nH]c4c(O)cccc4c3C[C@]21C` (racemic): 6.3 µM (≈ 2.45 µg/mL); for `CC(C)c1c(O)ccc2c1CC[C@H]1C(C)(C)c3oncc3C[C@]21C`: 40 µM (≈ 13 µg/mL). Consider `CC(C)c1c(O)ccc2c1CC[C@H]1C(C)(C)c3[nH]c4ccc(C#N)cc4c3C[C@]21C` (racemic), for which, in test [2], the inhibition result was “inactive”. Moreover, in test [1], the MIC was 0.78 µM (≈ 0.311 µg/mL).

In turn, `CC(C)c1c(O)ccc2c1CC[C@H]1C(C)(C)c3[nH]ncc3C[C@]21C` gave an MIC in test [1] of more than 160 µM. The same measure, in the same setting: as for `CC(C)c1c(O)ccc2c1CC[C@H]1C(C)(C)c3c(cnn3-c3ccccc3)C[C@]21C`, the figure is more than 160 µM; as for `CC(C)c1c(O)ccc2c1CC[C@H]1C(C)(C)/C(=N/O)CC[C@]21C`, more than 160 µM.

For `CCc1cccc2c3c([nH]c12)C(C)(C)[C@@H]1CCc2c(ccc(O)c2C(C)C)[C@@]1(C)C3` (racemic), the minimal inhibitory concentration (MIC) in test [1] came out at 1 µM (≈ 0.402 µg/mL). In other words, the single-digit micromolar range.
